Molecular target: T1, human CH24H (Homo sapiens, UniProt Q9Y6A2)
T1 construct: Using Full-Length Mammalian Gene Collection No. 4819975 (Invitrogen) as a template; made in house; host or cells: FreeStyle 293-F cells, transient transfection with pcDNA3.1(+)/hCH24H; lysate supernatant, not purified
Assay: Measurement of CH24H inhibitory activity (24-HC produced from [14C] cholesterol by human CH24H lysate)
Assay type: biochemical
Conditions: 1 μM test compound, [14C] cholesterol 15 μM, 37° C. for 5 hr, read-out: Inhibitory Rate in 1 μM (%)
Method: The expression of human CH24H was performed using FreeStyle 293 Expression System (Invitrogen). […] After transfection, the cells were cultured at 37° C., 8% CO2 with shaking at 125 rpm for 2 days. The cells were collected by centrifugation, and suspended in a suspension buffer (100 mM potassium phosphate (pH 7.4), 0.1 mM EDTA, 1 mM DTT, 20% Glycerol). The suspended product was disrupted by a polytron homogenizer (manufactured by Kinematica), and centrifuged at 9000×g for 10 min, and the supernatant was collected. The collected supernatant was cryopreserved (−80° C.) as a human CH24H lysate standard product.
For the measurement of CH24H inhibitory activity, using the human CH24H lysate prepared in Experimental Example 2, the amount of 24-HC produced from cholesterol by catalytic activity of CH24H was measured in the presence of a test compound, and compared with that measured in the absence of the test compound. That is, a test compound solution at various concentrations was mixed with a reaction buffer (50 mM potassium phosphate containing 0.1% BSA and Complete, EDTA-free, pH 7.4) and human CH24H lysate. Then, [^14C] cholesterol (53 mCi/mmol specific activity, 15 μM) was added, and CH24H reaction was performed at 37° C. for 5 hr. After completion of the reaction, a quenching solution consisting of chloroform/methanol/distilled water (2:2:1 v/v) was added, and the resulting 24-HC was extracted by shaking. The extract was applied to silica gel thin layer chromatography (ethyl acetate:toluene=4:6), and the obtained ^14C-24HC fraction was measured with BAS2500 (Fujifilm Corporation).
The inhibitory rate (%) was calculated from the ratio of radioactivity in the presence of a test compound relative to the radioactivity in the absence of the test compound.

T1 sequence (Q9Y6A2 whole entry): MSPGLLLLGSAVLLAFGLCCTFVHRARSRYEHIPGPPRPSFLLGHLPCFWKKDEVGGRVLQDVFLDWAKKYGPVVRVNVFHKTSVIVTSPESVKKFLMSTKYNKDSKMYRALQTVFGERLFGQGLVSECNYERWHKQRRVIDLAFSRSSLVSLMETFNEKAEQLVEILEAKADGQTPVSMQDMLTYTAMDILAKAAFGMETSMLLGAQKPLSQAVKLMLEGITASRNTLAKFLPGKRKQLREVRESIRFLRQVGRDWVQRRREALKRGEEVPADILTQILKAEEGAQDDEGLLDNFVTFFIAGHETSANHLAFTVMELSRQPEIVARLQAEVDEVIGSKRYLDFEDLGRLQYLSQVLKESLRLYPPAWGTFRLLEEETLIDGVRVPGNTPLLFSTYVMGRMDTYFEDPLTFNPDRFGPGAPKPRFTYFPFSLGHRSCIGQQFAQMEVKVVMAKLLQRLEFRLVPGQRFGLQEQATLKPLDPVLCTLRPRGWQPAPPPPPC

inhibition at 1 µM [%] | SMILES
85 | Cc1cnn(-c2ccncc2N2CCC(C(=O)N(C)[C@@H]3CCOC3)CC2)c1 [Example 306, N-methyl-1-(4-(4-methyl-1H-pyrazol-1-yl)pyridin-3-yl)-N-((3R)-tetrahydrofuran-3-yl)piperidine-4-carboxamide]
90 | O=C(NC1CC1)C1CCN(c2cncnc2-c2ccc(F)cc2)CC1 [Example 193, N-cyclopropyl-1-(4-(4-fluorophenyl)pyrimidin-5-yl)piperidine-4-carboxamide]
80 | Cc1cnc(-c2ccncc2N2CCC(C(=O)N(C)C)CC2)o1 [Example 2, N,N-dimethyl-1-(4-(5-methyl-1,3-oxazol-2-yl)pyridin-3-yl)piperidine-4-carboxamide]
97 | O=C(C1CCN(c2cnccc2-n2cc(Cl)cn2)CC1)N1CCS(=O)(=O)CC1 [Example 30, (1-(4-(4-chloro-1H-pyrazol-1-yl)pyridin-3-yl)piperidin-4-yl)(1,1-dioxidothiomorpholin-4-yl)methanone]
94 | Cc1cnc(-c2ccncc2N2CCC(C(=O)N3CC[C@H](F)C3)CC2)s1 [Example 316, ((3S)-3-fluoropyrrolidin-1-yl)(1-(4-(5-methyl-1,3-thiazol-2-yl)pyridin-3-yl)piperidin-4-yl)methanone]
97 | CC(C)C1CCCN1C(=O)C1CCN(c2cnccc2-n2cc(Cl)cn2)CC1 (stereo not drawn) [Example 29, (1-(4-(4-chloro-1H-pyrazol-1-yl)pyridin-3-yl)piperidin-4-yl)(2-isopropylpyrrolidin-1-yl)methanone]
97 | Cc1nnc(-c2ccncc2N2CCC(C(=O)N3CCC[C@]3(C)C#N)CC2)s1 [Example 128, (2R)-2-methyl-1-((1-(4-(5-methyl-1,3,4-thiadiazol-2-yl)pyridin-3-yl)piperidin-4-yl)carbonyl)pyrrolidine-2-carbonitrile]
80 | Cc1cnn(-c2ccncc2N2CCC(C(=O)N3CC(F)(F)C[C@H]3C#N)CC2)c1 [Example 121, (2S)-4,4-difluoro-1-((1-(4-(4-methyl-1H-pyrazol-1-yl)pyridin-3-yl)piperidin-4-yl)carbonyl)pyrrolidine-2-carbonitrile]
96 | O=C(C1CCN(c2cnccc2-n2cc(Br)cn2)CC1)N1CC(F)C1 [Example 319, (1-(4-(4-bromo-1H-pyrazol-1-yl)pyridin-3-yl)piperidin-4-yl) (3-fluoroazetidin-1-yl)methanone]
95 | O=C(NCc1ccccc1)N1CCN(c2cncnc2-c2ccccc2)CC1 [Example 175, N-benzyl-4-(4-phenylpyrimidin-5-yl)piperazine-1-carboxamide]
87 | CO[C@@H]1CCN(C(=O)C2CCN(c3cnccc3-n3cc(C)cn3)CC2)C1 [Example 302, ((3R)-3-methoxypyrrolidin-1-yl)(1-(4-(4-methyl-1H-pyrazol-1-yl)pyridin-3-yl)piperidin-4-yl)methanone]
93 | N#C[C@@H]1CC(F)(F)CN1C(=O)C1CCN(c2cnccc2-n2cc(Cl)cn2)CC1 [Example 119, (2S)-1-((1-(4-(4-chloro-1H-pyrazol-1-yl)pyridin-3-yl)piperidin-4-yl)carbonyl)-4,4-difluoropyrrolidine-2-carbonitrile]
74 | CN(C)C(=O)C1CCN(c2cnccc2-n2cc(C#N)cn2)CC1 [Example 83, 1-(4-(4-cyano-1H-pyrazol-1-yl)pyridin-3-yl)-N,N-dimethylpiperidine-4-carboxamide]
82 | Cc1cnn(-c2ccncc2N2CCC(C(=O)N(CCF)[C@@H]3CCOC3)CC2)c1 [Example 313, N-(2-fluoroethyl)-1-(4-(4-methyl-1H-pyrazol-1-yl)pyridin-3-yl)-N-((3R)-tetrahydrofuran-3-yl)piperidine-4-carboxamide]
84 | CN(C(=O)C1CCN(c2cncnc2-c2ccc(F)cc2)CC1)C1CCOCC1 [Example 288, 1-(4-(4-fluorophenyl)pyrimidin-5-yl)-N-methyl-N-(tetrahydro-2H-pyran-4-yl)piperidine-4-carboxamide]
92 | O=C(CCn1ncc2ccccc21)N1CCN(c2cnccc2-c2ccccc2)CC1 [Example 183, 3-(1H-indazol-1-yl)-1-(4-(4-phenylpyridin-3-yl)piperazin-1-yl)propan-1-one]
86 | Cc1cnn(-c2ccncc2N2CCC(C(=O)N3CCC[C@H]3C(N)=O)CC2)c1 [Example 114, 1-((1-(4-(4-methyl-1H-pyrazol-1-yl)pyridin-3-yl)piperidin-4-yl)carbonyl)-L-prolinamide]
90 | O=C(C1CC1)N1CCN(c2cnccc2-c2ccccc2)CC1 [Example 152, cyclopropyl(4-(4-phenylpyridin-3-yl)piperazin-1-yl)methanone]
84 | CO[C@H]1CCN(C(=O)C2CCN(c3cnccc3-n3cc(Cl)cn3)CC2)C1 [Example 299, (1-(4-(4-chloro-1H-pyrazol-1-yl)pyridin-3-yl)piperidin-4-yl)((3S)-3-methoxypyrrolidin-1-yl)methanone]
81 | O=C(NCc1ccccn1)N1CCN(c2cncnc2-c2ccccc2)CC1 [Example 188, 4-(4-phenylpyrimidin-5-yl)-N-(pyridin-2-ylmethyl)piperazine-1-carboxamide]
80 | O=C(C1CCN(c2cnccc2-n2cc(Cl)cn2)CC1)N1CC[C@H](F)C1 [Example 284, (1-(4-(4-chloro-1H-pyrazol-1-yl)pyridin-3-yl)piperidin-4-yl)((3S)-3-fluoropyrrolidin-1-yl)methanone]
99 | CN(C(=O)C1CCN(c2cnccc2-n2cc(Cl)cn2)CC1)C1CCOCC1 [Example 54, 1-(4-(4-chloro-1H-pyrazol-1-yl)pyridin-3-yl)-N-methyl-N-(tetrahydro-2H-pyran-4-yl)piperidine-4-carboxamide]
87 | O=C(N1CCN(c2cnccc2-c2ccccc2)CC1)N1CCC1c1ccc(F)cc1 (stereo not drawn) [Example 190, (2-(4-fluorophenyl)azetidin-1-yl) (4-(4-phenylpyridin-3-yl)piperazin-1-yl)methanone]
97 | CC1(CNC(=O)C2CCN(c3cnccc3-n3cc(Cl)cn3)CC2)COC1 [Example 31, 1-(4-(4-chloro-1H-pyrazol-1-yl)pyridin-3-yl)-N-((3-methyloxetan-3-yl)methyl)piperidine-4-carboxamide]
71 | Cc1cnn(-c2ccncc2N2CCC(C(=O)N(CCF)[C@H]3CCOC3)CC2)c1 [Example 312, N-(2-fluoroethyl)-1-(4-(4-methyl-1H-pyrazol-1-yl)pyridin-3-yl)-N-((3S)-tetrahydrofuran-3-yl)piperidine-4-carboxamide]
86 | Cc1cnn(-c2ccncc2N2CCC(C(=O)N(C)C3CCOCC3)CC2)c1 [Example 296, N-methyl-1-(4-(4-methyl-1H-pyrazol-1-yl)pyridin-3-yl)-N-(tetrahydro-2H-pyran-4-yl)piperidine-4-carboxamide]
98 | O=C(NC1CCCC1)C1CCN(c2cnccc2-n2cc(Cl)cn2)CC1(F)F (stereo not drawn) [Example 38, 1-(4-(4-chloro-1H-pyrazol-1-yl)pyridin-3-yl)-N-cyclopentyl-3,3-difluoropiperidine-4-carboxamide]
